Test results reported in BindingDB's records for doi:10.1016/j.bmcl.2010.10.033 (Glaxosmithkline, 2010).

How the values were obtained:
[1] = Antagonist activity at CCR5 in HOS cells assessed as inhibition of HIV-1 Ba-L infection
[2] = Antagonist activity at CCR5 in human peripheral blood lymphocytes cells assessed as inhibition of HIV-1 Ba-L infection

| Structure (SMILES) | IC50 [1] [nM] | IC50 [2] [nM] |
| --- | --- | --- |
| C=CCN(C(=O)Cc1ccc(C(N)=O)cc1)C1CCN(CCC2(c3cccc(F)c3)CCN(C(=O)c3cc(S(=O)(=O)NC(C)(C)C)c(F)cc3Cl)CC2)CC1 [4-(2-(allyl(1-(2-(1-(5-(N-tert-butylsulfamoyl)-2-chloro-4-fluorobenzoyl)-4-(3-fluorophenyl)piperidin-4-yl)ethyl)piperidin-4-yl)amino)-2-oxoethyl)benzamide] | 210 |  |
| C=CCN(C(=O)Nc1ccc(OC(C)=O)cc1)C1CCN(CCC2(c3cccc(F)c3)CCN(C(=O)c3cc(S(=O)(=O)NC(C)(C)C)c(F)cc3Cl)CC2)CC1 [4-(3-allyl-3-(1-(2-(1-(5-(N-tert-butylsulfamoyl)-2-chloro-4-fluorobenzoyl)-4-(3-fluorophenyl)piperidin-4-yl)ethyl)piperidin-4-yl)ureido)phenyl acetate] | 60 |  |
| C=CCN(C(=O)NCc1ccc(C(N)=O)cc1)C1CCN(CCC2(c3cccc(F)c3)CCN(C(=O)c3cc(S(=O)(=O)NC(C)(C)C)c(F)cc3Cl)CC2)CC1 [4-((3-allyl-3-(1-(2-(1-(5-(N-tert-butylsulfamoyl)-2-chloro-4-fluorobenzoyl)-4-(3-fluorophenyl)piperidin-4-yl)ethyl)piperidin-4-yl)ureido)methyl)benzamide] | 3100 |  |
| C=CCN(C(=O)OCc1ccc(S(C)(=O)=O)cc1)C1CCN(CCC2(c3cccc(F)c3)CCN(C(=O)c3cc(S(=O)(=O)NC(C)(C)C)c(F)cc3Cl)CC2)CC1 [4-(methylsulfonyl)benzyl allyl(1-(2-(1-(5-(N-tert-butylsulfamoyl)-2-chloro-4-fluorobenzoyl)-4-(3-fluorophenyl)piperidin-4-yl)ethyl)piperidin-4-yl)carbamate] | 17 | 4.5 |
| C=CCN(C(=O)OCc1ccc(OC(F)(F)F)cc1)C1CCN(CCC2(c3cccc(F)c3)CCN(C(=O)c3cc(S(=O)(=O)NC(C)(C)C)c(F)cc3Cl)CC2)CC1 [4-(trifluoromethoxy)benzyl allyl(1-(2-(1-(5-(N-tert-butylsulfamoyl)-2-chloro-4-fluorobenzoyl)-4-(3-fluorophenyl)piperidin-4-yl)ethyl)piperidin-4-yl)carbamate] | 27 |  |
| C=CCN(C(=O)OCc1ccc(C(F)(F)F)cc1)C1CCN(CCC2(c3cccc(F)c3)CCN(C(=O)c3cc(S(=O)(=O)NC(C)(C)C)c(F)cc3Cl)CC2)CC1 [4-(trifluoromethyl)benzyl allyl(1-(2-(1-(5-(N-tert-butylsulfamoyl)-2-chloro-4-fluorobenzoyl)-4-(3-fluorophenyl)piperidin-4-yl)ethyl)piperidin-4-yl)carbamate] | 15 | 40 |
| C=CCN(C(=O)OCc1ccc(C#N)cc1)C1CCN(CCC2(c3cccc(F)c3)CCN(C(=O)c3cc(S(=O)(=O)NC(C)(C)C)c(F)cc3Cl)CC2)CC1 [4-cyanobenzyl allyl(1-(2-(1-(5-(N-tert-butylsulfamoyl)-2-chloro-4-fluorobenzoyl)-4-(3-fluorophenyl)piperidin-4-yl)ethyl)piperidin-4-yl)carbamate] | 4.5 |  |
| C=CCN(C(=O)OCc1ccc(F)cc1)C1CCN(CCC2(c3cccc(F)c3)CCN(C(=O)c3cc(S(=O)(=O)NC(C)(C)C)c(F)cc3Cl)CC2)CC1 [4-fluorobenzyl allyl(1-(2-(1-(5-(N-tert-butylsulfamoyl)-2-chloro-4-fluorobenzoyl)-4-(3-fluorophenyl)piperidin-4-yl)ethyl)piperidin-4-yl)carbamate] | 22 |  |
| C=CCN(C(=O)OCc1ccc([N+](=O)[O-])cc1)C1CCN(CCC2(c3cccc(F)c3)CCN(C(=O)c3cc(S(=O)(=O)NC(C)(C)C)c(F)cc3Cl)CC2)CC1 [4-nitrobenzyl allyl(1-(2-(1-(5-(N-tert-butylsulfamoyl)-2-chloro-4-fluorobenzoyl)-4-(3-fluorophenyl)piperidin-4-yl)ethyl)piperidin-4-yl)carbamate] | 8.6 | 24 |
| C=CCN(C(=O)Nc1ccc(S(C)(=O)=O)cc1)C1CCN(CCC2(c3cccc(F)c3)CCN(C(=O)c3cc(S(=O)(=O)NC(C)(C)C)c(F)cc3Cl)CC2)CC1 [5-(4-(2-(4-(1-allyl-3-(4-(methylsulfonyl)phenyl)ureido)piperidin-1-yl)ethyl)-4-(3-fluorophenyl)piperidine-1-carbonyl)-N-tert-butyl-4-chloro-2-fluorobenzenesulfonamide] | 11.5 | 35 |
| C=CCN(C(=O)NCc1ccc(C(F)(F)F)cc1)C1CCN(CCC2(c3cccc(F)c3)CCN(C(=O)c3cc(S(=O)(=O)NC(C)(C)C)c(F)cc3Cl)CC2)CC1 [5-(4-(2-(4-(1-allyl-3-(4-(trifluoromethyl)benzyl)ureido)piperidin-1-yl)ethyl)-4-(3-fluorophenyl)piperidine-1-carbonyl)-N-tert-butyl-4-chloro-2-fluorobenzenesulfonamide] | 6.9 | 42 |
| C=CCN(C(=O)Nc1ccc(C(F)(F)F)cc1)C1CCN(CCC2(c3cccc(F)c3)CCN(C(=O)c3cc(S(=O)(=O)NC(C)(C)C)c(F)cc3Cl)CC2)CC1 [5-(4-(2-(4-(1-allyl-3-(4-(trifluoromethyl)phenyl)ureido)piperidin-1-yl)ethyl)-4-(3-fluorophenyl)piperidine-1-carbonyl)-N-tert-butyl-4-chloro-2-fluorobenzenesulfonamide] | 64 |  |
| C=CCN(C(=O)NCc1ccc(C#N)cc1)C1CCN(CCC2(c3cccc(F)c3)CCN(C(=O)c3cc(S(=O)(=O)NC(C)(C)C)c(F)cc3Cl)CC2)CC1 [5-(4-(2-(4-(1-allyl-3-(4-cyanobenzyl)ureido)piperidin-1-yl)ethyl)-4-(3-fluorophenyl)piperidine-1-carbonyl)-N-tert-butyl-4-chloro-2-fluorobenzenesulfonamide] | 3.9 | 3.7 |
| C=CCN(C(=O)Nc1ccc(C#N)cc1)C1CCN(CCC2(c3cccc(F)c3)CCN(C(=O)c3cc(S(=O)(=O)NC(C)(C)C)c(F)cc3Cl)CC2)CC1 [5-(4-(2-(4-(1-allyl-3-(4-cyanophenyl)ureido)piperidin-1-yl)ethyl)-4-(3-fluorophenyl)piperidine-1-carbonyl)-N-tert-butyl-4-chloro-2-fluorobenzenesulfonamide] | 20.5 | 25 |
| C=CCN(C(=O)NCc1ccc(F)cc1)C1CCN(CCC2(c3cccc(F)c3)CCN(C(=O)c3cc(S(=O)(=O)NC(C)(C)C)c(F)cc3Cl)CC2)CC1 [5-(4-(2-(4-(1-allyl-3-(4-fluorobenzyl)ureido)piperidin-1-yl)ethyl)-4-(3-fluorophenyl)piperidine-1-carbonyl)-N-tert-butyl-4-chloro-2-fluorobenzenesulfonamide] | 46 |  |
| C=CCN(C(=O)Nc1ccc(F)cc1)C1CCN(CCC2(c3cccc(F)c3)CCN(C(=O)c3cc(S(=O)(=O)NC(C)(C)C)c(F)cc3Cl)CC2)CC1 [5-(4-(2-(4-(1-allyl-3-(4-fluorophenyl)ureido)piperidin-1-yl)ethyl)-4-(3-fluorophenyl)piperidine-1-carbonyl)-N-tert-butyl-4-chloro-2-fluorobenzenesulfonamide] | 34 |  |
| C=CCN(C(=O)CCc1ccc(OC(F)(F)F)cc1)C1CCN(CCC2(c3cccc(F)c3)CCN(C(=O)c3cc(S(=O)(=O)NC)c(F)cc3Cl)CC2)CC1 [N-allyl-N-(1-(2-(1-(2-chloro-4-fluoro-5-(N-methylsulfamoyl)benzoyl)-4-(3-fluorophenyl)piperidin-4-yl)ethyl)piperidin-4-yl)-3-(4-(trifluoromethoxy)phenyl)propanamide] | 420 |  |
| C=CCN(C(=O)CCc1ccc(C#N)cc1)C1CCN(CCC2(c3cccc(F)c3)CCN(C(=O)c3cc(S(=O)(=O)NC)c(F)cc3Cl)CC2)CC1 [N-allyl-N-(1-(2-(1-(2-chloro-4-fluoro-5-(N-methylsulfamoyl)benzoyl)-4-(3-fluorophenyl)piperidin-4-yl)ethyl)piperidin-4-yl)-3-(4-cyanophenyl)propanamide] | 150 |  |
| C=CCN(C(=O)Cc1ccc(S(C)(=O)=O)cc1)C1CCN(CCC2(c3cccc(F)c3)CCN(C(=O)c3cc(S(=O)(=O)NC(C)(C)C)c(F)cc3Cl)CC2)CC1 [N-allyl-N-(1-(2-(1-(5-(N-tert-butylsulfamoyl)-2-chloro-4-fluorobenzoyl)-4-(3-fluorophenyl)piperidin-4-yl)ethyl)piperidin-4-yl)-2-(4-(methylsulfonyl)phenyl)acetamide] | 65 |  |
| C=CCN(C(=O)Cc1ccc(OC(F)(F)F)cc1)C1CCN(CCC2(c3cccc(F)c3)CCN(C(=O)c3cc(S(=O)(=O)NC(C)(C)C)c(F)cc3Cl)CC2)CC1 [N-allyl-N-(1-(2-(1-(5-(N-tert-butylsulfamoyl)-2-chloro-4-fluorobenzoyl)-4-(3-fluorophenyl)piperidin-4-yl)ethyl)piperidin-4-yl)-2-(4-(trifluoromethoxy)phenyl)acetamide] | 18 | 87 |
| C=CCN(C(=O)Cc1ccc(C(F)(F)F)cc1)C1CCN(CCC2(c3cccc(F)c3)CCN(C(=O)c3cc(S(=O)(=O)NC(C)(C)C)c(F)cc3Cl)CC2)CC1 [N-allyl-N-(1-(2-(1-(5-(N-tert-butylsulfamoyl)-2-chloro-4-fluorobenzoyl)-4-(3-fluorophenyl)piperidin-4-yl)ethyl)piperidin-4-yl)-2-(4-(trifluoromethyl)phenyl)acetamide] | 3.3 | 53 |
| C=CCN(C(=O)Cc1ccc(F)cc1)C1CCN(CCC2(c3cccc(F)c3)CCN(C(=O)c3cc(S(=O)(=O)NC(C)(C)C)c(F)cc3Cl)CC2)CC1 [N-allyl-N-(1-(2-(1-(5-(N-tert-butylsulfamoyl)-2-chloro-4-fluorobenzoyl)-4-(3-fluorophenyl)piperidin-4-yl)ethyl)piperidin-4-yl)-2-(4-fluorophenyl)acetamide] | 52 |  |
| C=CCN(C(=O)OCc1ccc(C(=O)OC)cc1)C1CCN(CCC2(c3cccc(F)c3)CCN(C(=O)c3cc(S(=O)(=O)NC(C)(C)C)c(F)cc3Cl)CC2)CC1 [methyl 4-((allyl(1-(2-(1-(5-(N-tert-butylsulfamoyl)-2-chloro-4-fluorobenzoyl)-4-(3-fluorophenyl)piperidin-4-yl)ethyl)piperidin-4-yl)carbamoyloxy)methyl)benzoate] | 41 |  |
